According to PubChem BioAssay (NCI):
Where “and” joins values, the source holds several entries; their conditions need not be identical. Identical values can stand only once.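 Assay format: 96-well plates, 48-hour exposure. At the GI50, growth is halved. TGI: total growth inhibition.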

Tests used:
Assay in all cases: growth of human tumour cells (NCI), 48 h
SK-MEL-28 melanoma = test system: SK-MEL-28 melanoma
OVCAR-8 ovarian = test system: OVCAR-8 ovarian
786-0 renal = test system: 786-0 renal
KM12 colon = test system: KM12 colon
SNB-19 CNS = test system: SNB-19 CNS
HCT-15 colon = test system: HCT-15 colon
NCI-H522 lung = test system: NCI-H522 lung
CCRF-CEM leukemia = test system: CCRF-CEM leukemia
LOX IMVI melanoma = test system: LOX IMVI melanoma

SMILES	TGI (SK-MEL-28 melanoma)	TGI (OVCAR-8 ovarian)	TGI (786-0 renal)	TGI (KM12 colon)	TGI (SNB-19 CNS)	TGI (HCT-15 colon)	TGI (NCI-H522 lung)	TGI (CCRF-CEM leukemia)	TGI (LOX IMVI melanoma)	GI50 (OVCAR-8 ovarian)	GI50 (786-0 renal)	GI50 (NCI-H522 lung)	GI50 (CCRF-CEM leukemia)
CCOc1ccc(NC(=O)/C(CC(=O)c2c[n+](=O)c3ccccc3n2[O-])=N\OCCCc2ccccc2)cc1	> 100 µM	> 100 µM	> 100 µM	> 100 µM	> 100 µM	> 100 µM	> 100 µM	> 100 µM					
COc1ccc(-c2ccc(CC(=O)O)cc2)cc1OC	> 100 µM	> 100 µM	> 100 µM	> 100 µM	> 100 µM		> 100 µM	> 100 µM					
Cc1cccc(C)c1NC(=O)C(=O)Cc1nc2ccccc2s1	> 100 µM	> 100 µM	> 100 µM	> 100 µM	> 100 µM	> 100 µM	> 100 µM	> 100 µM	> 100 µM				
O=C1NC(O)n2c(=O)[nH]c(=O)n21 (centres undefined)	> 100 µM	> 100 µM	> 100 µM	> 100 µM	> 100 µM	> 100 µM	> 100 µM	> 100 µM	> 100 µM				
Cc1cc(Cl)ccc1NC(=O)CCCC(=O)C1C/C(=N/O)CC/C1=N\O (centres undefined)	> 100 µM	> 100 µM	> 100 µM	> 100 µM	> 100 µM	> 100 µM	> 100 µM	> 100 µM					
COc1cc(C)c2c(c1)CN1CN2Cc2cc(OC)cc(C)c21		> 100 µM	> 100 µM	> 100 µM		> 100 µM	> 100 µM	> 100 µM	> 100 µM				
COC(=O)C1CC(c2ccc(OC)c(OC)c2)OC1=O (mixture of isomers)	> 100 µM	> 100 µM	> 100 µM	> 100 µM	> 100 µM	> 100 µM	> 100 µM	> 100 µM	> 100 µM				
Cc1nnc2n1N=C(c1ccccc1)C(c1ccccc1)S2 (centres undefined)		> 100 µM	> 100 µM	> 100 µM	> 100 µM	> 100 µM	57.7 µM	77.1 µM	> 100 µM				
C1=CC(=P(c2ccccc2)(c2ccccc2)c2ccccc2)C=C1	19.6 µM	69.2 µM	28.8 µM	24.4 µM	31.6 µM	> 100 µM	10.1 µM	13.4 µM	24.6 µM				
Cc1cc2c(c(C(=O)O)c1C)-c1cccc(Cl)c1C2=O	> 100 µM	> 100 µM	> 100 µM	> 100 µM	> 100 µM	> 100 µM	> 100 µM	> 100 µM	> 100 µM				
c1cnc2c(c1)-n1cccc1C1(CCCCC1)NN2	> 100 µM	> 100 µM	> 100 µM	> 100 µM	> 100 µM	> 100 µM	> 100 µM	> 100 µM	> 100 µM				
Cc1cc(=O)[nH]c(NNC(C#N)c2cccc([N+](=O)[O-])c2)n1 (centres undefined)	> 100 µM	> 100 µM	> 100 µM	> 100 µM		> 100 µM	> 100 µM	> 100 µM	> 100 µM				
CC(=O)Nc1ccc(C2CC(c3ccc([N+](=O)[O-])cc3)=Nc3ccccc3S2)cc1 (centres undefined)	38.4 µM	35.4 µM	31.1 µM	30.6 µM	62.4 µM	37.2 µM		56 µM	32.3 µM				
OCC(O)C(O)C(O)C(/C=N\Nc1ncnc2c(Br)cc(Br)cc12)=N/Nc1ncnc2c(Br)cc(Br)cc12 (centres undefined)		28.3 µM and > 100 µM		70.8 µM and > 100 µM			24.9 µM and > 100 µM		31.4 µM and > 100 µM	11.7 µM and 3.76 µM	2.73 µM and 5.76 µM	10.1 µM and 3.6 µM	
CCOc1c(Br)cc(Br)cc1C=C(C#N)C#N	> 10 µM	> 10 µM	> 10 µM	> 10 µM	> 10 µM	> 10 µM		> 10 µM	7.36 µM				
CC(C)(C)C#COC(=O)c1ccccc1		> 100 µM	> 100 µM	> 100 µM	> 100 µM	> 100 µM	> 100 µM	> 100 µM	> 100 µM				
CN1CCCC2[C@@H]3CCC4c5nonc5CC[C@]4(C)C3CC[C@@]21C (some centres undefined)	> 100 µM	> 100 µM	> 100 µM	> 100 µM	> 100 µM	> 100 µM	> 100 µM						
O=c1[nH]ccc(CNC23CC4CC(CC(C4)C2)C3)c1O		> 100 µM	> 100 µM	> 100 µM	> 100 µM	> 100 µM	52.7 µM	> 100 µM					
N/N=C(/Cc1ccccc1)NNO	> 100 µM		> 100 µM	34.9 µM	> 100 µM	> 100 µM		> 100 µM	> 100 µM				
O=C1CC23CCCCCCCCCCC2(C1)CC(=O)C3 (centres undefined)	> 100 µM	> 100 µM	> 100 µM	45 µM	76.3 µM	> 100 µM	45 µM	44.4 µM					
c1ccc2c(c1)[nH]c1c2nc2ccccn21	> 100 µM	> 100 µM	> 100 µM	> 100 µM	> 100 µM	> 100 µM	> 100 µM	> 100 µM					48.4 µM and > 100 µM
